Assay results taken from patent US8486892B2, “Blood coagulation factor inhibitors” (Novo Nordisk Health Care AG, priority 2008, dated 2013).

Biological target: T1, 40K-PEG-rFVIIa (Homo sapiens, UniProt P08709)
T1 construct: Typically, Factor VII is cleaved between residues 152 and 153 to yield Factor VIIa; 40K-PEG (about 40 kDa PEG on a glycan)
T1 sequence (P08709 213-466 limits assumed): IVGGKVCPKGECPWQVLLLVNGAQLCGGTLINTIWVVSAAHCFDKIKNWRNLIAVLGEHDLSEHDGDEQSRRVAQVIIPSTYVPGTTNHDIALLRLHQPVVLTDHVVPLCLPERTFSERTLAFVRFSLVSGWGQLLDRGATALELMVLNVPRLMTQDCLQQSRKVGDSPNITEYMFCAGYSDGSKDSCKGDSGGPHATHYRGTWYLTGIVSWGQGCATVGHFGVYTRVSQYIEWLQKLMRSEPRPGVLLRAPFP
T1 sequence (P08709 61-212 limits assumed): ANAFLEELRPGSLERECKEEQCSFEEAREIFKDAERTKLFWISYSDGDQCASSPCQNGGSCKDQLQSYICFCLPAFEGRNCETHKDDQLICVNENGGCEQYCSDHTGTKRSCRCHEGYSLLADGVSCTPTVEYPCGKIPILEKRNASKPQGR
Assay: Stability experiment on 40K-PEG-rFVIIa in solution, clot activity by One-stage Coagulation Assay (Assay 4)
Type: biochemical
Conditions: 20 mg/ml 40K-PEG-rFVIIa, pH 7.0, 3 months at 25° C.
Protocol: Factor VII polypeptides may also be assayed for specific activities (“clot activity”) by using a one-stage coagulation assay (Assay 4). For this purpose, the sample to be tested is diluted in 50 mM PIPES-buffer (pH 7.2), 1% BSA and 40 μl is incubated with 40 μl of Factor VII deficient plasma and 80 μl of human recombinant tissue factor containing 10 mM Ca^2+ and synthetic phospholipids. Coagulation times (clotting times) are measured and compared to a standard curve using a reference standard in a parallel line assay.
In order to investigate the stabilizing effect of the compounds described by the current invention on Factor VIIa molecules in solution, a stability experiment was performed on 40K-PEG-rFVIIa.
The investigated formulations contained 0, 1, 10 or 30 mM n-propyloxycarbonyl-Phe(4-amidino)-Glu-Asn-Cha-(OEG)5-NH2, and all contained 20 mg/ml 40K-PEG-rFVIIa, 20 mM histidine, pH 7.0, 6% sucrose, 20 mM CaCl2, 0.5 mg/ml methionine. The samples were incubated 3 months at 25° C., and analysed for clot activity using the above-described “One-stage Coagulation Assay” (Assay 4) (see section “General Methods”).

Propyloxycarbonyl-(4-amidino-Phe)-Glu-Asn-Cha-[HN—(CH2—CH2—O)2—(CH2)—C(═O)]5—NH2 [Example 1]
Clot activity relative to the initial value (1 mM inhibitor): 18% | Clot activity relative to the initial value (10 mM inhibitor): 86% | Clot activity relative to the initial value (30 mM inhibitor): 89%
